Laboratory results: PubChem BioAssay AID248 (DTP/NCI, 2004)
Several values for one entry are separate records, joined by “and”; a condition that tells them apart may be missing. Equal entries are not always repeated. Toxic doses and inconclusive results are not listed.

System: L1210 leukemia ip in BDF1 mice, survival T/C
Test: NCI In Vivo Anticancer Drug Screen. Data for tumor model L1210 Leukemia (intraperitoneal) in B6D2F1 (BDF1) mice
Conditions: endpoint: mean survival time, higher = longer survival
How it was run: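 Transplanted-tumor mice were given test agent; controls received vehicle only. Survival readings from the two groups were divided (treated over control).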

[1] = dose: 25.0 mg/kg/injection, schedule: Q01DX009 (ip), vehicle: saline
[2] = dose: 50.0 mg/kg/injection, schedule: Q01DX009 (ip), vehicle: saline
[3] = dose: 100.0 mg/kg/injection, schedule: Q01DX009 (ip), vehicle: saline
[4] = dose: 100.0 mg/kg/injection, schedule: Q04DX003 (ip), vehicle: Klucel (hydroxypropylcellulose) (HPC)
[5] = dose: 200.0 mg/kg/injection, schedule: Q04DX003 (ip), vehicle: Klucel (hydroxypropylcellulose) (HPC)
[6] = dose: 400.0 mg/kg/injection, schedule: Q04DX003 (ip), vehicle: Klucel (hydroxypropylcellulose) (HPC)
[7] = dose: 100.0 mg/kg/injection, schedule: Q04DX003 (ip), vehicle: saline with Tween-80
[8] = dose: 200.0 mg/kg/injection, schedule: Q04DX003 (ip), vehicle: saline with Tween-80
[9] = dose: 400.0 mg/kg/injection, schedule: Q04DX003 (ip), vehicle: saline with Tween-80
[10] = dose: 100.0 mg/kg/injection, schedule: Q01DX001 (ip), vehicle: Klucel (hydroxypropylcellulose) (HPC)
[11] = dose: 200.0 mg/kg/injection, schedule: Q01DX001 (ip), vehicle: Klucel (hydroxypropylcellulose) (HPC)
[12] = dose: 400.0 mg/kg/injection, schedule: Q01DX001 (ip), vehicle: Klucel (hydroxypropylcellulose) (HPC)
[13] = dose: 100.0 mg/kg/injection, schedule: Q01DX009 (ip), vehicle: Klucel (hydroxypropylcellulose) (HPC)
[14] = dose: 200.0 mg/kg/injection, schedule: Q01DX009 (ip), vehicle: Klucel (hydroxypropylcellulose) (HPC)
[15] = dose: 400.0 mg/kg/injection, schedule: Q01DX009 (ip), vehicle: Klucel (hydroxypropylcellulose) (HPC)
[16] = dose: 100.0 mg/kg/injection, schedule: Q01DX001 (ip), vehicle: saline
[17] = dose: 200.0 mg/kg/injection, schedule: Q01DX001 (ip), vehicle: saline
[18] = dose: 200.0 mg/kg/injection, schedule: Q01DX009 (ip), vehicle: saline
[19] = dose: 100.0 mg/kg/injection, schedule: Q04DX003 (ip), vehicle: saline
[20] = dose: 200.0 mg/kg/injection, schedule: Q04DX003 (ip), vehicle: saline
[21] = dose: 400.0 mg/kg/injection, schedule: Q04DX003 (ip), vehicle: saline
[22] = dose: 100.0 mg/kg/injection, schedule: Q01DX001 (ip), vehicle: carboxymethylcellulose (CMC)
[23] = dose: 200.0 mg/kg/injection, schedule: Q01DX001 (ip), vehicle: carboxymethylcellulose (CMC)
[24] = dose: 400.0 mg/kg/injection, schedule: Q01DX001 (ip), vehicle: carboxymethylcellulose (CMC)

Compound: CCC(=O)c1ccc(OCC(O)CN2CCN(c3ccccc3Cl)CC2)cc1 (stereo unspecified)
- T/C (dose: 100.0 mg/kg/injection, schedule: Q01DX001 (ip), vehicle: saline with Tween-80): 101 % of control
- T/C (dose: 100.0 mg/kg/injection, schedule: Q01DX009 (ip), vehicle: saline with Tween-80): 95 % of control
- T/C (dose: 200.0 mg/kg/injection, schedule: Q01DX001 (ip), vehicle: saline with Tween-80): 104 % of control
- T/C (dose: 200.0 mg/kg/injection, schedule: Q01DX009 (ip), vehicle: saline with Tween-80): 95 % of control
- T/C (dose: 400.0 mg/kg/injection, schedule: Q01DX001 (ip), vehicle: saline with Tween-80): 102 % of control
- T/C (dose: 400.0 mg/kg/injection, schedule: Q01DX009 (ip), vehicle: saline with Tween-80): 88 % of control

Compound: O=C(C[n+]1ccccc1)N/N=C/c1ccc(Cl)c(Cl)c1
- T/C [1]: 94 % of control
- T/C [2]: 102 % of control
- T/C [3]: 102 % of control

Compound: CCC(=O)OC1(c2ccccc2)CCN(C/C=C/c2cccc3ccccc23)CC1
- T/C (dose: 100.0 mg/kg/injection, schedule: Q01DX001 (ip), vehicle: gum acacia): 103 % of control
- T/C (dose: 200.0 mg/kg/injection, schedule: Q01DX001 (ip), vehicle: gum acacia): 103 % of control

Compound: CN1CC(CO)C=C2c3cccc4[nH]cc(c34)CC21 (stereo unspecified)
- T/C (dose: 25.0 mg/kg/injection, schedule: Q01DX009 (ip), vehicle: alcohol): 100 % of control
- T/C (dose: 25.0 mg/kg/injection, schedule: Q04DX003 (ip), vehicle: alcohol): 98 % of control
- T/C (dose: 50.0 mg/kg/injection, schedule: Q01DX009 (ip), vehicle: alcohol): 118 % of control
- T/C (dose: 50.0 mg/kg/injection, schedule: Q04DX003 (ip), vehicle: alcohol): 103 % of control
- T/C (dose: 100.0 mg/kg/injection, schedule: Q01DX009 (ip), vehicle: alcohol): 123 % of control
- T/C (dose: 100.0 mg/kg/injection, schedule: Q04DX003 (ip), vehicle: alcohol): 101 % of control
- T/C (dose: 200.0 mg/kg/injection, schedule: Q01DX009 (ip), vehicle: alcohol): 107 % of control
- T/C (dose: 200.0 mg/kg/injection, schedule: Q04DX003 (ip), vehicle: alcohol): 98 % of control
- T/C (dose: 400.0 mg/kg/injection, schedule: Q04DX003 (ip), vehicle: alcohol): 109 % of control

Compound: CC(=O)CC(=O)Nc1nc2ccccc2s1
- T/C [4]: 92 % of control
- T/C [5]: 103 % of control
- T/C [6]: 97 % of control

Compound: Nc1cccc2scnc12
- T/C [7]: 90 % of control
- T/C [8]: 95 % of control
- T/C [9]: 90 % of control

Compound: O=C(NCCCl)NC1CCCCC1
- T/C [10]: 88 % of control
- T/C [11]: 89 % of control
- T/C [12]: 100 % of control

Compound: O=C1CCCc2ccc(Br)cc21
- T/C [7]: 99 % of control
- T/C [8]: 96 % of control
- T/C [9]: 99 % of control

Compound: CCC1N(C)CCCN1C
- T/C [7]: 97 % of control
- T/C [8]: 95 % of control

Compound: N#CC(CC(=O)O)=C(c1ccccc1)c1ccccc1
- T/C [10]: 106 % of control
- T/C [13]: 97 % of control and 104 % of control
- T/C (dose: 100.0 mg/kg/injection, schedule: Q04DX002 (ip), vehicle: Klucel (hydroxypropylcellulose) (HPC)): 96 % of control and 98 % of control
- T/C [4]: 97 % of control
- T/C [11]: 110 % of control
- T/C [14]: 95 % of control and 101 % of control
- T/C (dose: 200.0 mg/kg/injection, schedule: Q04DX002 (ip), vehicle: Klucel (hydroxypropylcellulose) (HPC)): 95 % of control and 101 % of control
- T/C [5]: 101 % of control

Compound: CCc1cccc(CC)c1N=Cc1ccccc1
- T/C [13]: 97 % of control
- T/C [14]: 105 % of control
- T/C [15]: 97 % of control

Compound: CC/C(=C(\CC)c1ccc(OCCOS(C)(=O)=O)cc1)c1ccc(OCCOS(C)(=O)=O)cc1
- T/C (dose: 12.5 mg/kg/injection, schedule: Q04DX002 (ip), vehicle: saline): 97 % of control
- T/C (dose: 25.0 mg/kg/injection, schedule: Q04DX002 (ip), vehicle: saline): 101 % of control
- T/C (dose: 50.0 mg/kg/injection, schedule: Q04DX002 (ip), vehicle: saline): 94 % of control

Compound: CC(C)CCCC(C)C1CCC2C3CC=C4CC(OC(=O)c5cc([N+](=O)[O-])c(N6CC6)c([N+](=O)[O-])c5)CCC4(C)C3CCC12C (stereo unspecified)
- T/C (dose: 50.0 mg/kg/injection, schedule: Q01DX001 (sc), vehicle: steriod suspending solution): 110 % of control
- T/C (dose: 100.0 mg/kg/injection, schedule: Q01DX001 (sc), vehicle: steriod suspending solution): 96 % of control
- T/C (dose: 200.0 mg/kg/injection, schedule: Q01DX001 (sc), vehicle: steriod suspending solution): 102 % of control
- T/C (dose: 400.0 mg/kg/injection, schedule: Q01DX001 (sc), vehicle: steriod suspending solution): 96 % of control

Compound: COc1cc(Br)c(CCC(N)=O)cc1OC
- T/C [7]: 96 % of control
- T/C [8]: 95 % of control
- T/C [9]: 93 % of control

Compound: CCCCn1c(=O)cc[nH]c1=O
- T/C [4]: 99 % of control
- T/C [5]: 91 % of control
- T/C [6]: 93 % of control

Compound: OC1CCCN(Cc2ccccc2)C1 (stereo unspecified)
- T/C [16]: 107 % of control
- T/C [17]: 96 % of control

Compound: CC(=O)Nc1cccc(C(F)(F)F)c1
- T/C (dose: 25.0 mg/kg/injection, schedule: Q01DX009 (ip), vehicle: Klucel (hydroxypropylcellulose) (HPC)): 101 % of control
- T/C (dose: 50.0 mg/kg/injection, schedule: Q01DX009 (ip), vehicle: Klucel (hydroxypropylcellulose) (HPC)): 96 % of control
- T/C [13]: 101 % of control

Compound: CC(=O)OCCC(CCOC(C)=O)=C1N=C(c2ccccc2)OC1=O
- T/C [3]: 97 % of control
- T/C (dose: 100.0 mg/kg/injection, schedule: Q04DX003 (ip), vehicle: other): 101 % of control
- T/C [18]: 105 % of control
- T/C (dose: 200.0 mg/kg/injection, schedule: Q04DX003 (ip), vehicle: other): 104 % of control
- T/C (dose: 400.0 mg/kg/injection, schedule: Q01DX009 (ip), vehicle: saline): 92 % of control
- T/C (dose: 400.0 mg/kg/injection, schedule: Q04DX003 (ip), vehicle: other): 101 % of control

Compound: COc1ccc(NC(=O)Oc2ccc(F)cc2Cl)c(OC)c1
- T/C [13]: 97 % of control
- T/C [14]: 95 % of control
- T/C [15]: 101 % of control

Compound: CC1(C)C(=O)Nc2ccccc2N1C(=O)CN1CC2CCC(CC2)C1
- T/C [3]: 94 % of control
- T/C [19]: 93 % of control
- T/C [18]: 92 % of control
- T/C [20]: 95 % of control
- T/C [21]: 98 % of control

Compound: CCC(C)(C)c1cc(Sc2cc(C(C)(C)CC)cc(C(C)(C)CC)c2O)c(O)c(C(C)(C)CC)c1
- T/C [19]: 109 % of control
- T/C [20]: 100 % of control
- T/C [21]: 88 % of control

Compound: CNC(CNC(CO)CC(C)C)Cc1ccc(OCc2ccccc2)cc1 (stereo unspecified)
- T/C (dose: 12.5 mg/kg/injection, schedule: Q01DX009 (ip), vehicle: saline): 102 % of control
- T/C [1]: 91 % of control
- T/C (dose: 25.0 mg/kg/injection, schedule: Q04DX003 (ip), vehicle: saline): 95 % of control
- T/C [2]: 94 % of control
- T/C (dose: 50.0 mg/kg/injection, schedule: Q04DX003 (ip), vehicle: saline): 95 % of control
- T/C [19]: 95 % of control

Compound: O=C(Nc1ccc([N+](=O)[O-])cc1[N+](=O)[O-])C(Cl)(Cl)Cl
- T/C [7]: 94 % of control
- T/C [8]: 96 % of control
- T/C [9]: 105 % of control

Compound: O=C(Nc1nccs1)C(Cl)Cl
- T/C [22]: 103 % of control
- T/C (dose: 177.0 mg/kg/injection, schedule: Q01DX001 (ip), vehicle: Klucel (hydroxypropylcellulose) (HPC)): 105 % of control
- T/C [23]: 118 % of control
- T/C (dose: 266.0 mg/kg/injection, schedule: Q01DX001 (ip), vehicle: Klucel (hydroxypropylcellulose) (HPC)): 107 % of control
- T/C [12]: 105 % of control
- T/C [24]: 249 % of control
- T/C (dose: 600.0 mg/kg/injection, schedule: Q01DX001 (ip), vehicle: Klucel (hydroxypropylcellulose) (HPC)): 105 % of control

Compound: O=C(O)/C(S)=C\c1ccc(Cl)cc1
- T/C [16]: 97 % of control
- T/C [17]: 94 % of control

Compound: CC(=O)Nc1ccc2c(c1)Cc1cc(N=Cc3ccc4c(c3)OCO4)ccc1-2
- T/C [22]: 91 % of control
- T/C [23]: 104 % of control
- T/C [24]: 93 % of control
